pIC50: −log10 of the molar value. Read-outs that look alike come from different tables or passages of the source.
Assays:
Hep G2 cells [1] = assay: ara ATP formation from (3H) labelled ara-M in infected Hep G2 cells; type: cell-based, human; conditions: Hep G2 cells infected with pCR78 containing viruses, incubated with (3H) labelled compound; Figure 6
Protocol: (§1) The replication-defective, full length, artificial retroviruses containing the AFP/VZV TK chimaera were used to infect a human hepatoma cell line called Hep G2 (ATCC KS 8065). Following infection and selection on 1mg geneticin/ml (Trade mark), the cells were assayed for VZV TK activity. In addition, the cells were incubated in the presence of (^3H) labeled 9-(B-D-arabinofuranosyl)-6-methoxy-9H purine (designated as ara-M in the following tables and figures) with subsequent measurement of ara ATP. Finally, cells were cultured in the presence of the above mentioned compound and the IC50 - (growth inhibition) was determined. Cells infected with no virus or N2 virus act as control samples for these experiments. N2 virus contain no VZV TK genetic material.
9-(B-D-arabinofuranosyl)-6-methoxy-9H purine (designated as ara-m) can be selectively monophosphorylated by VZV TK with subsequent anabolism to cytotoxic ara ATP.

Hep G2 cells [2] = assay: Growth inhibition of Hep G2 cells (cell number and DNA content, 5 days); type: cell-based; conditions: Homo sapiens, read-out: IC50 (50% growth inhibition)
Protocol: as §1
Hep G2 cells infected with the replication-defective, full length, artificial retroviruses containing the AFP/VZV TK (pCR78) chimaera were incubated in the presence of varying amounts of 9-(B-D-arabinofuranosyl)-6-methoxy-9H purine for 5 days and growth inhibition determined as measured by cell number and DNA content.

COc1ncnc2c1ncn2[C@@H]1O[C@H](CO)[C@@H](O)[C@@H]1O [9-(β-D-arabinofuranosyl)-6-methoxy-9H-purine]
(3H) araATP formation (Hep G2 cells [1]): significant amounts | pIC50 (Hep G2 cells [2]; HepG2, 120 h, Hep G2 cells infected with AFP/VZV TK (pCR78) retrovirus, 5 days): 3.76 | pIC50 (Hep G2 cells [2]; HepG2, 120 h, Hep G2 cells infected with N2 virus (no VZV TK), 5 days): < 2.70 | pIC50 (Hep G2 cells [2]; HepG2, 120 h, control Hep G2 cells, no virus, 5 days): < 2.70 | pIC50 (Hep G2 cells [2]; HepG2, single cell clones of Hep G2 cells containing the AFP/VZV TK (pCR78) chimaera): ~4.40
